In brackets after ≈: the same amount, converted by molar mass. Activity calls are given as the source filed them. The rule behind the calls is not given here.
Assays:
Trichophyton rubrum = test: Fungicidal activity against Trichophyton rubrum isolate 2 measured after 48 hrs by broth dilution method; type: functional; conditions: isolate 2, 48 h
Jurkat [1] = test: Induction of apoptosis in human Jurkat cells assessed as PARP cleavage at 100 nM measured after 10 hrs by Western blotting; type: functional, cell-based
Jurkat [2] = test: Induction of apoptosis in human Jurkat cells assessed as DNA laddering at 1 nM by gel electrophoresis; type: functional, cell-based
[3] = Antifungal activity against Epidermophyton floccosum isolate 1 measured after 48 hrs by broth dilution method; type: functional
[4] = Antifungal activity against Trichophyton rubrum isolate 2 measured after 48 hrs by broth dilution method; type: functional
[5] = Antifungal activity against Trichophyton mentagrophytes isolate 2 measured after 48 hrs by broth dilution method; type: functional
[6] = Antifungal activity against Candida glabrata measured after 48 hrs by broth dilution method; type: functional; conditions: Nakaseomyces glabratus
[7] = Cytotoxicity against human HT-29 cells assessed as reduction in cell viability measured after 48 hrs by resazurin dye-based fluorometric analysis; type: functional; conditions: Homo sapiens, HT-29, 48 h
[8] = Antiproliferative activity against taxol-resistant human MES-SA/Dx5 cells expressing MDR1 mRNA and P-gp; type: functional, cell-based
[9] = Antiproliferative activity against taxol-resistant human MES-SA/Dx5 cells expressing MDR1 mRNA and P-gp pretreated with p-gp inhibitor cyclosporinA followed by compound addition; type: functional, cell-based
Aspergillus fumigatus [10] = test: Antifungal activity against Aspergillus fumigatus isolate 2 measured after 48 hrs by broth dilution method; type: functional; conditions: isolate 2, 48 h
Aspergillus fumigatus [11] = test: Antifungal activity against Aspergillus fumigatus isolate 1 measured after 48 hrs by broth dilution method; type: functional; conditions: isolate 1, 48 h
[12] = Antiproliferative activity against taxol-sensitive human MES-SA cells […]; type: functional, cell-based
[13] = Antifungal activity against Trichophyton mentagrophytes isolate 1 measured after 48 hrs by broth dilution method; type: functional
[14] = Cytotoxicity against human PC3 cells assessed as reduction in cell viability measured after 48 hrs by resazurin dye-based fluorometric analysis; type: functional; conditions: PC-3, 48 h
[15] = Antiproliferative activity against taxol-sensitive human MES-SA cells pretreated with p-gp inhibitor cyclosporinA followed by compound addition; type: functional, cell-based
[16] = Antifungal activity against Epidermophyton floccosum isolate 2 measured after 48 hrs by broth dilution method; type: functional
[17] = Cytotoxicity against human HT-29 cells assessed as reduction in cell viability measured after 48 hrs by resazurin dye-based fluorometric analysis relative to control; type: functional
[18] = tested on: Trichophyton mentagrophytes; test: Fungicidal activity against Trichophyton mentagrophytes isolate 1 measured after 48 hrs by broth dilution method; type: functional; conditions: isolate 1, 48 h
[19] = Antifungal activity against Trichophyton rubrum isolate 1 measured after 48 hrs by broth dilution method; type: functional
[20] = Antiproliferative activity against human mitoxantrone-resistant HL60/MX2 cells; type: functional, cell-based; conditions: HL-60
[21] = Antiproliferative activity against human mitoxantrone-sensitive HL60 cells; type: functional, cell-based; conditions: HL-60
Jurkat [22] = test: Induction of apoptosis in human Jurkat cells assessed as caspase3 activation; type: functional, cell-based
[23] = Antitumor activity against human HT-29 cells xenografted in nude mouse assessed as tumor growth inhibition at 100 mg/kg, ip administered thrice weekly relative to control; type: functional; conditions: HT-29, ip, read-out: TGI
MES-SA = test: Ratio of EC50 for taxol-resistant human MES-SA/DX5 cells expressing MDR1 mRNA and P-gp to EC50 for taxol-sensitive human MES-SA cells; type: functional
Tubulin (Homo sapiens) [24] = target: T1, Tubulin (Homo sapiens) (UniProt P68371+Q9H4B7+P0DPH7+P68366+Q13509+Q71U36+P04350+Q3ZCM7+P07437+P68363+Q9BQE3+Q6PEY2+Q13885+Q9BVA1+Q9BUF5); test: Induction of microtubule depolymerization in HUVEC at 1.5 to 5 uM by turbidity spectroscopic analysis; type: cell-based
[25] = Cytotoxicity against human MDA-MB-231 cells assessed as reduction in cell viability measured after 48 hrs by resazurin dye-based fluorometric analysis; type: functional; conditions: MDA-MB-231, 48 h
HL-60 = test: Ratio of EC50 for human mitoxantrone-sensitive HL60 cells to EC50 for human mitoxantrone-resistant HL60/MX2 cells; type: functional
Tubulin (Homo sapiens) [26] = target: T1, Tubulin (Homo sapiens); test: Induction of microtubule depolymerization in HUVEC at 20 nM measured after 30 mins by DAPI-staining based immunofluorescence analysis; type: cell-based
[27] = Cytotoxicity against human NCI-H292 cells assessed as reduction in cell viability measured after 48 hrs by resazurin dye-based fluorometric analysis; type: functional; conditions: NCI-H292, 48 h
[28] = Cytotoxicity against mouse B16F10 cells assessed as reduction in cell viability measured after 48 hrs by resazurin dye-based fluorometric analysis; type: functional; conditions: B16-F10, 48 h
HeLa [29] = test: Effect on cell cycle progression in human HeLa cells assessed as increase in 4N cells at 40 nM; type: functional, cell-based
[30] = target: Tubulin (Candida albicans) (UniProt P87066+P10875+O93807); test: Inhibition of microtubule formation in Candida albicans; type: protein-complex assay
Sequence of Tubulin (Candida albicans) (O93807 whole entry, looked up): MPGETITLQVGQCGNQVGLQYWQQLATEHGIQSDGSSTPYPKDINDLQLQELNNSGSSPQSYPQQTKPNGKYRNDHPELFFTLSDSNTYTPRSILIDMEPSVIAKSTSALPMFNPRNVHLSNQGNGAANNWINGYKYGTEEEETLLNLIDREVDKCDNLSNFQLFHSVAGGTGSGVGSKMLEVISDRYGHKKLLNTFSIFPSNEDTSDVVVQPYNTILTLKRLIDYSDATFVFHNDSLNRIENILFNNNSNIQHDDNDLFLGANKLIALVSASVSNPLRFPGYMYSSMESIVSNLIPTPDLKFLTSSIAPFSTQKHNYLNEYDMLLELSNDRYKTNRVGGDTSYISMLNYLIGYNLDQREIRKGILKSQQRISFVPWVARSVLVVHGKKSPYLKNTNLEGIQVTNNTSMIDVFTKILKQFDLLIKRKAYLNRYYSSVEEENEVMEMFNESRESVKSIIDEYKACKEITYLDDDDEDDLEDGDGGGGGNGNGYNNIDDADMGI
Sequence of Tubulin (Candida albicans) (P10875 whole entry, looked up): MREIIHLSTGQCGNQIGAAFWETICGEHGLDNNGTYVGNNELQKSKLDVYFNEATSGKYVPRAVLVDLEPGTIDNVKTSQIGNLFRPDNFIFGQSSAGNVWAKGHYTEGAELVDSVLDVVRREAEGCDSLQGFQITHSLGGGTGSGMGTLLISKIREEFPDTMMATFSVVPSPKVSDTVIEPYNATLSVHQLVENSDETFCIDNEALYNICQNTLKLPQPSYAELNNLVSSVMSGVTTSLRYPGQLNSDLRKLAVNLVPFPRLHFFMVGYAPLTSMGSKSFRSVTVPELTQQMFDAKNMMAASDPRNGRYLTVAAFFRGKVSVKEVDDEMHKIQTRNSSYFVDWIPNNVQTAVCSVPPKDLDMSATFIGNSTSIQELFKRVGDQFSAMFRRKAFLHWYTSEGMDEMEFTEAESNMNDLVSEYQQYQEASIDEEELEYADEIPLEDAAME
Sequence of Tubulin (Candida albicans) (P87066 whole entry, looked up): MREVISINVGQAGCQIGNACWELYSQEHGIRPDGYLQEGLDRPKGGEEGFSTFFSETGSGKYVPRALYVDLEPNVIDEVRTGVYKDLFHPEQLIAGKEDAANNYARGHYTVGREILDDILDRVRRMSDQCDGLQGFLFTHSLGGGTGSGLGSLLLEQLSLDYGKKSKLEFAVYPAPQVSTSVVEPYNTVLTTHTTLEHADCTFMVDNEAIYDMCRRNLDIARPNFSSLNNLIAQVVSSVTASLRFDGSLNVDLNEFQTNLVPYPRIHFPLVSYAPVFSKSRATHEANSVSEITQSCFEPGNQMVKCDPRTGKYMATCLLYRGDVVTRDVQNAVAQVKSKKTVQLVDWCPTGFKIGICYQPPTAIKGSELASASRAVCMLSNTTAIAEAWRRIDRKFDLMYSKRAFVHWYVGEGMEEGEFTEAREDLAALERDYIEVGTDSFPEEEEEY

HeLa [31] = test: Effect on cell cycle progression in human HeLa cells assessed as reduction in 2N cells at 40 nM; type: functional, cell-based
Tubulin (Homo sapiens) [32] = target: T1, Tubulin (Homo sapiens); test: Induction of microtubule instability in human MCF7 cells assessed as time spent for growth at IC25 for mitotic block measured after 20 hrs by immunofluorescence analysis; type: cell-based
MCF7 [33] = test: Antimitotic activity in human MCF7 cells assessed as microtubule polymer at twice mitotic block IC50 measured after 20 hrs by immunofluorescence analysis relative to control; type: functional, cell-based
MCF7 [34] = test: Antimitotic activity in human MCF7 cells assessed as bipolar cells with uncompressed chromosomes at mitotic block IC50 measured after 20 hrs by immunofluorescence analysis relative to control; type: functional
MCF7 [35] = test: Antimitotic activity in human MCF7 cells assessed as decrease in microtubule polymer formation measured after 20 hrs by immunofluorescence analysis relative to control; type: functional, cell-based
Tubulin (Homo sapiens) [36] = target: T1, Tubulin (Homo sapiens); test: Time required for induction of microtubule dynamic instability in human MCF7 cells at IC50 for mitotic block measured after 20 hrs by immunofluorescence analysis; type: cell-based
Tubulin (Homo sapiens) [37] = target: T1, Tubulin (Homo sapiens); test: Induction of microtubule instability in human MCF7 cells assessed as catastrophy frequency at IC25 for mitotic block measured after 20 hrs by immunofluorescence analysis; type: cell-based
Tubulin (Bos taurus) = Tubulin (Bos taurus) (UniProt Q6B856+Q862L2+Q862F3); conditions: 10 uM
Description: Inhibition of [3H]CLC binding to bovine brain tubulin at 10 uM measured after 120 mins in presence of GTP by scintillation counting method

Tubulin (Homo sapiens) [38] = target: T1, Tubulin (Homo sapiens); test: Induction of microtubule instability in human MCF7 cells assessed as catastrophy frequency at IC50 for mitotic block measured after 20 hrs by immunofluorescence analysis; type: cell-based
Tubulin (Homo sapiens) [39] = target: T1, Tubulin (Homo sapiens); test: Induction of microtubule instability in human MCF7 cells assessed as time spent for shortening at IC50 for mitotic block measured after 20 hrs by immunofluorescence analysis; type: cell-based
Tubulin (Homo sapiens) [40] = target: T1, Tubulin (Homo sapiens); test: Induction of microtubule instability in human MCF7 cells assessed as rescue frequency at IC25 for mitotic block measured after 20 hrs by immunofluorescence analysis; type: cell-based
Tubulin (Homo sapiens) [41] = target: T1, Tubulin (Homo sapiens); test: Induction of microtubule instability in human MCF7 cells assessed as time spent for attenuation at IC25 for mitotic block measured after 20 hrs by immunofluorescence analysis; type: cell-based
Tubulin (Homo sapiens) [42] = target: T1, Tubulin (Homo sapiens); test: Induction of microtubule instability in human MCF7 cells assessed as time spent for shortening at IC25 for mitotic block measured after 20 hrs by immunofluorescence analysis; type: cell-based
Tubulin (Homo sapiens) [43] = target: T1, Tubulin (Homo sapiens); test: Induction of microtubule instability in human MCF7 cells assessed as time spent for growth at IC50 for mitotic block measured after 20 hrs by immunofluorescence analysis; type: cell-based
Tubulin (Homo sapiens) [44] = target: T1, Tubulin (Homo sapiens); test: Time required for induction of microtubule dynamic instability in human MCF7 cells at IC25 for mitotic block measured after 20 hrs by immunofluorescence analysis; type: cell-based
MCF7 [45] = test: Antimitotic activity in human MCF7 cells assessed as mitotic index measured after 20 hrs by DAPI-staining based fluorescence microscopic analysis; type: functional, cell-based
Tubulin (Homo sapiens) [46] = target: T1, Tubulin (Homo sapiens); test: Induction of microtubule instability in human MCF7 cells assessed as rescue frequency at IC50 for mitotic block measured after 20 hrs by immunofluorescence analysis; type: cell-based
Tubulin (Homo sapiens) [47] = target: T1, Tubulin (Homo sapiens); test: Induction of microtubule instability in human MCF7 cells assessed as time spent for attenuation at IC50 for mitotic block measured after 20 hrs by immunofluorescence analysis; type: cell-based
[48] = target: Tubulin alpha (Homo sapiens) (UniProt P0DPH7+P68366+Q71U36+P68363+Q9BQE3+Q6PEY2+A6NHL2+Q9NY65); test: Induction of alpha-tubulin depolymerization in HUVEC at 200 nM measured after 30 mins by DAPI staining based indirect immunofluorescence analysis; type: cell-based

C=CC(C)(C)c1[nH]cnc1/C=c1\[nH]c(=O)/c(=C/c2ccccc2)[nH]c1=O
MFC (Trichophyton rubrum): > 16 µg/mL
Activity (Jurkat [1]): Active
Activity (Jurkat [2]): Active
MIC [3]: > 16 µg/mL
MIC [4]: 0.25 µg/mL (≈ 0.718 µM)
MIC [5]: > 16 µg/mL
MIC [6]: > 68 µg/mL
EC50 [7]: 42.6 to 48 nM
EC50 [8]: 98 nM
EC50 [9]: 88 nM
MIC (Aspergillus fumigatus [10]): > 16 µg/mL
MIC (Aspergillus fumigatus [11]): > 16 µg/mL
EC50 [12]: 116 nM
MIC [13]: 4 µg/mL (≈ 11.5 µM)
EC50 [14]: 4.7 to 5.4 nM
EC50 [15]: 114 nM
MIC [16]: > 16 µg/mL
inhibition (INH) [17]: 86%
MFC [18]: > 16 µg/mL
MIC [19]: > 16 µg/mL

O=C1c2c(O)ccc(O)c2C(=O)c2c(NCCNCCO)ccc(NCCNCCO)c21 [MITOXANTRONE]
EC50 [20]: 1100 to 4870 nM
EC50 [21]: 42 to 202 nM
Activity (Jurkat [22]): Dose-dependent effect

CCc1c2c(nc3ccc(OC(=O)N4CCC(N5CCCCC5)CC4)cc13)-c1cc3c(c(=O)n1C2)COC(=O)[C@]3(O)CC [IRINOTECAN]
inhibition in vivo at 100 mg/kg [23]: 32.7 to 39%

CC(C)(C)c1ocnc1/C=c1\[nH]c(=O)/c(=C/c2cc(F)cc(F)c2F)[nH]c1=O
Ratio EC50 (MES-SA): 1
EC50 [20]: 19 nM
EC50 [7]: 11.4 to 17 nM
IC50 [8]: 13 nM
EC50 [14]: 21 nM
Activity (Tubulin (Homo sapiens) [24]): Active
EC50 [25]: 52 nM
Ratio EC50 (HL-60): 0.7
Activity (Tubulin (Homo sapiens) [26]): Active
EC50 [27]: 16 nM
EC50 [28]: > 2000 nM

CC(C)(C)c1ocnc1/C=c1\[nH]c(=O)/c(=C/c2ccccc2)[nH]c1=O.O=C(O)C(F)(F)F
Ratio EC50 (MES-SA): 1.4
EC50 [20]: 14 nM
EC50 [7]: 21 to 22.2 nM
IC50 [8]: 17 nM
EC50 [14]: 20 nM
Activity (Tubulin (Homo sapiens) [24]): Active
EC50 [25]: 41 nM
Ratio EC50 (HL-60): 0.6
inhibition (INH) [17]: 88%
Activity (Tubulin (Homo sapiens) [26]): Active
EC50 [27]: 19 nM
EC50 [28]: > 2000 nM

COC(=O)Nc1nc2cc(C(=O)c3cccs3)ccc2[nH]1
Activity (HeLa [29]): Active
inhibition [30]: Active
Activity (HeLa [31]): Active

COc1ccc(/C=C\c2cc(OC)c(OC)c(OC)c2)cc1O
TIME (Tubulin (Homo sapiens) [32]): 0.0045 h
Activity (MCF7 [33]): Active
Activity (MCF7 [34]): Active
Activity (MCF7 [35]): Dose-dependent effect
TIME (Tubulin (Homo sapiens) [36]): 0.653 h
Activity (Tubulin (Homo sapiens) [37]): 1.52 min⁻¹
inhibition (Tubulin (Bos taurus)): Active
Activity (Tubulin (Homo sapiens) [38]): 1.09 min⁻¹
TIME (Tubulin (Homo sapiens) [39]): 0.00367 h
Activity (Tubulin (Homo sapiens) [40]): 1.9 min⁻¹
TIME (Tubulin (Homo sapiens) [41]): 0.0075 h
TIME (Tubulin (Homo sapiens) [42]): 0.0035 h
TIME (Tubulin (Homo sapiens) [43]): 0.0055 h
TIME (Tubulin (Homo sapiens) [44]): 0.66 h
inhibition (MCF7 [45]): Dose-dependent effect
Activity (Tubulin (Homo sapiens) [46]): 2.79 min⁻¹
TIME (Tubulin (Homo sapiens) [47]): 0.00917 h

CC(C)(C)c1[nH]cnc1/C=c1\[nH]c(=O)/c(=C/c2cccc(F)c2)[nH]c1=O
Activity [48]: Active
